In patent US11013235B2 (priority 2015, dated 2021):
Like-named read-outs stand apart in the source and are kept apart here.

How the values were obtained:
Format in all cases: in vivo
Botrytis cinerea [1] = assay: Control of Botrytis cinerea disease in tobacco (Bc-Nt); conditions: 1 μM spraying every 24 hours for one week, water control 6.7
Summary of the method: (§1)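 Each group of fifty plants is inoculated with the pathogen and afterwards sprayed with 1 μM compound once every 24 hours over one week. Water-sprayed plants serve as the control. Disease is scored as mortality (Nocardia), symptomatic leaf percentage (Alternaria) or lesion size by diameter (Botrytis).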

Botrytis cinerea [2] = assay: Control of Botrytis cinerea disease in Arabidopsis (Bc-At); conditions: 1 μM spraying every 24 hours for one week, water control 8.7
Summary of the method: as §1

Rhizoctonia solani [3] = assay: Control of Rhizoctonia solani disease in tobacco (Rs-Nt); conditions: 1 μM spraying every 24 hours for one week, water control 87
Botrytis cinerea [4] = assay: Control of Botrytis cinerea disease in tomato (Bc-SI); conditions: 1 μM spraying every 24 hours for one week, water control 7.4
Summary of the method: as §1

Phytophthora parasitica = assay: Control of Phytophthora parasitica disease in tobacco (Pp-Nt); conditions: 1 μM spraying every 24 hours for one week, water control 91
[5] = tested on: Candidatus 'Liberibacter asiaticus'; conditions: spraying every 15 days, 12 months after treatment, Citrus sinensis with HLB
Pratylenchus coffeae = assay: Nematode control, nodules per plant: Pratylenchus coffeae; conditions: 1 μM foliar application every 5 days, evaluation 35 days after, control 42
Summary of the method: (§2)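 Ten plants per group were treated by spraying leaves only, every 5 days, with compound at 1 μM in water diluted from ethanol, and final nodule counts per plant were taken after 35 days.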

Radopholus similis = assay: Nematode control, nodules per plant: Radopholus similis; conditions: 1 μM foliar application every 5 days, evaluation 35 days after, control 45
Summary of the method: as §2

Meloidogyne incognita = assay: Nematode control, nodules per plant: Meloidogyne incognita; conditions: 1 μM foliar application every 5 days, evaluation 35 days after, control 34
Summary of the method: as §2

Nocardia sp = assay: Control of Nocardia sp disease in tobacco (N-Nt); conditions: 1 μM spraying every 24 hours for one week, water control 58
Summary of the method: as §1

Alternaria solani = assay: Control of Alternaria solani disease in tomato (As-SI); conditions: 1 μM spraying every 24 hours for one week, water control 68
Summary of the method: as §1

Rhizoctonia solani [6] = assay: Control of Rhizoctonia solani disease in tomato (Rs-SI); conditions: 1 μM spraying every 24 hours for one week, water control 96

Row | Compound | Bc-Nt: mean of the diameter of the lesion (Botrytis cinerea [1]) [mm] | Bc-At: mean of the diameter of the lesion (Botrytis cinerea [2]) [mm] | Rs-Nt: percentage of mortality (Rhizoctonia solani [3]) [%] | Bc-SI: mean of the diameter of the lesion (Botrytis cinerea [4]) [mm] | Pp-Nt: percentage of mortality (Phytophthora parasitica) [%] | Titers of the bacterium ([5]; 0.001 μM) [copies per reaction] | Titers of the bacterium ([5]; 0.01 μM) [copies per reaction] | Titers of the bacterium ([5]; 1 μM) [copies per reaction] | Titers of the bacterium ([5]; 5 μM) [copies per reaction] | Titers of the bacterium ([5]; 10 μM) [copies per reaction] | Pc: number of nodules per plant (Pratylenchus coffeae) | Rs: number of nodules per plant (Radopholus similis) | Mi: number of nodules per plant (Meloidogyne incognita) | N-Nt: percentage of mortality (Nocardia sp) [%] | As-SI: percentage of leaves with the disease symptoms (Alternaria solani) [%] | Rs-SI: percentage of mortality (Rhizoctonia solani [6]) [%]
1 | CC(O)C(O)CN1CCC(Oc2ccc(C(=O)N3CCC(C4CCCC4)C3)cc2)CC1 (stereo not drawn) [IVH, 1-(4-{4-[(3-cyclopentylpyrrolidin-1-yl)carbonyl]phenoxy}piperidin-1-yl)butane-2,3-diol] | 0.9 | 0.7 | 0 | 1.2 | 0 | 756 | 0 | 0 | 76 | 1351 | 0 | 0 | 0 | 0 | 5 | 1
2 | CC(O)C(O)CN1CCC(Oc2ccc(C(=O)N3CCC(c4ccccc4)C3)cc2)CC1 (stereo not drawn) [IVD, 1-(4-{4-[(3-phenylpyrrolidin-1-yl)carbonyl]phenoxy}piperidin-1-yl)butane-2,3-diol] | 2.0 | 1.1 | 3 | 1.6 | 2 | 587 | 0 | 0 | 87 | 2368 | 15 | 2 | 3 | 1 | 2 | 2
3 | O=C(CC1COc2ccc(C(=O)Nc3ccccc3)cc2N1)NC(CO)CO (stereo not drawn) [VC, 3-{[(1,3-dihydroxypropan-2-yl)carbamoyl]methyl}-N-phenyl-3,4-dihydro-2H-1,4-benzoxazine-6-carboxamide] | 0.3 | 1.2 | 0 | 0.8 | 0 | 432 | 0 | 4 | 43 | 6524 | 0 | 0 | 0 | 0 | 7 | 0
4 | CC(O)C(O)CN1CCC(Oc2ccc(C(=O)N3CCC(C4CCCCC4)C3)cc2)CC1 (stereo not drawn) [IVF, 1-(4-{4-[(3-cyclohexylpyrrolidin-1-yl)carbonyl]phenoxy}piperidin-1-yl)butane-2,3-diol] | 1.5 | 1.5 | 0 | 2.5 | 0 | 657 | 0 | 0 | 67 | 8654 | 17 | 0 | 0 | 1 | 8 | 2
5 | Cc1c(CCC(=O)NCC(O)CO)c(=O)oc2cc3occ(-n4cccc4)c3cc12 (stereo not drawn) [IN, N-(2,3-dihydroxypropyl)-3-[4-methyl-2-oxo-6-(1H-pyrrol-1-yl)-2H-furo[3,2-g]chromen-3-yl]propanamide] | 2.0 | 1.1 | 0 | 1.6 | 3 | 524 | 0 | 0 | 54 | 2368 | 0 | 3 | 0 | 0 | 7 | 1
6 | Cc1c2c(oc(=O)c1CC(=O)NCC(O)CO)C=CC1C(C3CCCCC3)=COC21 (stereo not drawn) [IIJ, 2-{5-cyclohexyl-13-methyl-11-oxo-3,10-dioxatricyclo[7.4.0.0^{2,6}]trideca-1(9),4,7,12-tetraen-12-yl)-N-(2,3-dihydroxypropyl)acetamide] | 0.9 | 0.7 | 4 | 1.2 | 1 | 435 | 1 | 1 | 45 | 6541 | 2 | 12 | 4 | 2 | 3 | 2
7 | CC1CCN(C(=O)c2ccc(OC3CCN(CC(O)CO)CC3)cc2)C1 (stereo not drawn) [IVA, 3-(4-{4-[(3-methylpyrrolidin-1-yl)carbonyl]phenoxy}piperidin-1-yl)propane-1,2-diol] | 1.5 | 2.4 | 0 | 0.8 | 0 | 598 | 1 | 5 | 98 | 6521 | 0 | 0 | 0 | 0 | 5 | 1
8 | O=C(c1cnc(N2CCNCC2)nc1)N1CC2CC(O)C(O)CC2C1 (stereo not drawn) [IIII, 2-{[2-(piperazin-1-yl)pyrimidin-5-yl]carbonyl}-octahydro-1H-isoindole-5,6-diol] | 0.3 | 1.2 | 3 | 0.8 | 2 | 435 | 9 | 8 | 45 | 8654 | 12 | 2 | 3 | 1 | 2 | 2
9 | O=C(c1cnc(N2CCN(C3CCCC3)CC2)nc1)N1CC2CC(O)C(O)CC2C1 (stereo not drawn) [IIIG, 2-{[2-(4-cyclopentylpiperazin-1-yl)pyrimidin-5-yl]carbonyl}-octahydro-1H-isoindole-5,6-diol] | 1.5 | 2.4 | 0 | 0.8 | 3 | 756 | 12 | 5 | 76 | 9654 | 0 | 3 | 0 | 0 | 7 | 1
